Data as given in patent publication US5521155A, “Amides of teicoplanin compounds” (Gruppo Lepetit S.p.A, priority 1985, dated 1996).
≈ marks a conversion by molar mass, not a printed value.

Columns and labels:
[1] = Isoelectric point (pI) by isoelectrofocusing with bioautography detection; format: physicochemical; conditions: IEF technique, polyacrylamide gel
Excerpt: The isoelectrofocusing (IEF) technique coupled with bioautography detection has been used for the determination of the pI of representative compounds of the invention using the following materials: AMPHOLINE carrier ampholytes (40% w/v) were purchased from LKB Produketer AB, Bromma, Sweden. Acrylamide, N,N'-methylenbisacrylamide (BIS), N,N,N',N'-tetramethylethylenediamine (TEMED) and ammonium persulfate were from Bio Rad Laboratorie, Richmond, Calif., USA. Glycerol and Antibiotic agar N. 1 (Grove and Randall medium N. 1) were from E. Merck Darmstadt FRG. GEL FIX polyester sheets were purchased from Serva Feinbiochemica Heidelberg. Phenolindo (2,6-dichlorophenol) came from BDH Chemicals Ltd. Poole, England.
IEF was made on gel slab using a LKB MULITPHOR 2117 cell and a Bio-Rad Power Supply Model 1420A. Slabs of 24.5×11.5 cm and 1 mm thickness were prepared on a sheet of GEL FIX. Polyacrylamide gels with a concentration of 8% T and with a cross-linkage of 4% C (30% T stock solution was prepared by dissolving 28.8 g of acrylamide and 1.2 g of bis-acrylamide in 100 ml distilled water), glycerol, 3.5% v/v, 2% AMPHOLINE, 0.05% ammonium persulphate as catalyst and 0.05% TEMED as accelerator. The carrier ampholite composition for 35 ml gelling solution was as follows:
The electrode solutions, as recommended by LKB for the respective pH range, were:
The gel was cooled to 4° C. with the aid of a LKB 2209 refrigerated constant temperature circulator. After prefocusing for 30 min. at 5 W, the samples (20 μl containing 0.2 to 2.5 μg of antibiotic) were loaded into the slot at the cathodic side. Electrofocusing was performed using 10 W constant power and was completed after 3-31/2 hours with a final potential of 1400 V.
The pH values were determined by dividing a portion of the gel into 1 cm sections, and eluting the individual pieces at room temperature with 1 ml of 10 mM KCl prior to pH readings.
The isoelectric point of each antibiotic was determined by interpolation on a curve obtained by plotting pH values versus the distance from the anode.
Polyacrylamide gel was placed on a 3 mm layer of agar medium N. 1 inoculated with 1% of Bacillus subtilis ATCC 6633 spore (0.5 OD at 600 nm). After 10 min the gel was removed and the plate was incubated overnight at 37° C. and examined for inhibition zones. The contrast between the area of lysis and that of bacterial growth was enhanced by use of Phenolindo(2,6-dichlorophenol) 1% w/v (oxidation-reduction indicator).

E. coli SKF 12140 = assay: In vitro antibacterial activity, standard agar-dilution test (MIC); format: cell-based; conditions: inoculum about 10^4 CFU/ml, 18-24 h at 37° C.
Method: (§1) The culture medium ISOSENSITEST BROTH (Oxoid) and the colture medium TODD-[…] BROTH (Difco) are used for growing staphylococci and streptococci, respectively. Broth cultures are diluted so that the final inoculum is about 10^4 colony forming units/ml (CFU/ml).

[2] = system: Proteus vulgaris X 19H ATCC 881; assay: as above; format: cell-based; conditions: inoculum about 10^4 CFU/ml, 18-24 h at 37° C.
Method: as §1

[3] = system: Pseudomonas aeruginosa ATCC 10145; assay: as above; format: cell-based; conditions: inoculum about 10^4 CFU/ml, 18-24 h at 37° C.
Method: as §1

S. aureus Tour = assay: as above; format: cell-based; conditions: inoculum about 10^4 CFU/ml, 18-24 h at 37° C.
Method: as §1

[4] = system: S. epidermidis ATCC 12228; assay: as above; format: cell-based; conditions: inoculum about 10^4 CFU/ml, 18-24 h at 37° C.
Method: as §1

S. faecalis ATCC 7080 = assay: as above; format: cell-based; conditions: inoculum about 10^4 CFU/ml, 18-24 h at 37° C.
Method: as §1

S. pneumoniae UC 41 = assay: as above; format: cell-based; conditions: inoculum about 10^4 CFU/ml, 18-24 h at 37° C.
Method: as §1

S. pyogenes C 203 = assay: as above; format: cell-based; conditions: inoculum about 10^4 CFU/ml, 18-24 h at 37° C.
Method: as §1

S. pyogenes L 49 = assay: In vivo test in mice experimentally infected with S. pyogenes L 49 (ED50); conditions: mice infected with S. pyogenes L 49; for ED50, route of administration os.: oral

| SMILES | Isoelectric point (pI) [1] | MIC E. coli SKF 12140 (E. coli SKF 12140) [µg/mL] | MIC Proteus vulgaris X 19H ATCC 881 [2] [µg/mL] | MIC Pseudomonas aeruginosa ATCC 10145 [3] [µg/mL] | MIC S. aureus Tour (S. aureus Tour) [µg/mL] | MIC S. epidermidis ATCC 12228 [4] [µg/mL] | MIC S. faecalis ATCC 7080 (S. faecalis ATCC 7080) [µg/mL] | MIC S. pneumoniae UC 41 (S. pneumoniae UC 41) [µg/mL] | MIC S. pyogenes C 203 (S. pyogenes C 203) [µg/mL] | ED50, route of administration os. (S. pyogenes L 49) [mg/kg] | ED50, route of administration s.c (S. pyogenes L 49) [mg/kg] |
| --- | --- | --- | --- | --- | --- | --- | --- | --- | --- | --- | --- |
| CCCCCN(CCCCC)CCCNC(=O)C1NC(=O)C2NC(=O)C(NC(=O)C3NC(=O)C4NC(=O)C(Cc5ccc(c(Cl)c5)Oc5cc3cc(c5O)Oc3ccc(cc3Cl)C2OC2OC(CO)C(O)C(O)C2NC(C)=O)NC(=O)C(N)c2ccc(O)c(c2)Oc2cc(O)cc4c2)c2ccc(O)c(c2)-c2c(OC3OC(CO)C(O)C(O)C3O)cc(O)cc21 (stereo not shown) [Compound 43] | 8.7 | – | – | – | – | – | – | – | – | – | – |
| CCCCCCN(CCCCCC)CCCNC(=O)C1NC(=O)C2NC(=O)C(NC(=O)C3NC(=O)C4NC(=O)C(Cc5ccc(c(Cl)c5)Oc5cc3cc(c5O)Oc3ccc(cc3Cl)C2OC2OC(CO)C(O)C(O)C2NC(C)=O)NC(=O)C(N)c2ccc(O)c(c2)Oc2cc(O)cc4c2)c2ccc(O)c(c2)-c2c(OC3OC(CO)C(O)C(O)C3O)cc(O)cc21 (stereo not shown) [Compound 44] | 8.7 | – | – | – | – | – | – | – | – | – | – |
| COC(=O)CNC(=O)C1NC(=O)C2NC(=O)C(NC(=O)C3NC(=O)C4NC(=O)C(Cc5ccc(c(Cl)c5)Oc5cc3cc(c5O)Oc3ccc(cc3Cl)C2OC2OC(CO)C(O)C(O)C2NC(C)=O)NC(=O)C(N)c2ccc(O)c(c2)Oc2cc(O)cc4c2)c2ccc(O)c(c2)-c2c(OC3OC(CO)C(O)C(O)C3O)cc(O)cc21 (stereo not shown) [Compound 47] | 7.8 | – | – | – | – | – | – | – | – | – | – |
| CC(=O)NC1C(OC2c3ccc(c(Cl)c3)Oc3cc4cc(c3O)Oc3ccc(cc3Cl)CC3NC(=O)C(N)c5ccc(O)c(c5)Oc5cc(O)cc(c5)C(NC3=O)C(=O)NC4C(=O)NC3C(=O)NC2C(=O)NC(C(=O)NCC(=O)O)c2cc(O)cc(O)c2-c2cc3ccc2O)OC(CO)C(O)C1O (stereo not shown) [Compound 56] | 5.8 | – | – | – | – | – | – | – | – | – | – |
| CCCCCCN(CCCCCC)CCCNC(=O)C1NC(=O)C2NC(=O)C(NC(=O)C3NC(=O)C4NC(=O)C(Cc5ccc(c(Cl)c5)Oc5cc3cc(c5O)Oc3ccc(cc3Cl)C2O)NC(=O)C(N)c2ccc(O)c(c2)Oc2cc(O)cc4c2)c2ccc(O)c(c2)-c2c(O)cc(O)cc21 (stereo not shown) [Compound 62] | 8.6 | – | – | – | – | – | – | – | – | – | – |
| NC1C(=O)NC2Cc3ccc(c(Cl)c3)Oc3cc4cc(c3O)Oc3ccc(cc3Cl)C(O)C3NC(=O)C(NC(=O)C4NC(=O)C(NC2=O)c2cc(O)cc(c2)Oc2cc1ccc2O)c1ccc(O)c(c1)-c1c(O)cc(O)cc1C(C(=O)NCC(=O)O)NC3=O (stereo not shown) [Compound 65] | 5.8 | – | – | – | – | – | – | – | – | – | – |
| CCN1CCCC1CNC(=O)C1NC(=O)C2NC(=O)C(NC(=O)C3NC(=O)C4NC(=O)C(Cc5ccc(c(Cl)c5)Oc5cc3cc(c5O)Oc3ccc(cc3Cl)C2O)NC(=O)C(N)c2ccc(O)c(c2)Oc2cc(O)cc4c2)c2ccc(O)c(c2)-c2c(O)cc(O)cc21.Cl.Cl (stereo not shown) [Compound 79] | – | 4 | 32 | 64 | 0.06 | 0.06 | 0.12 | 0.06 | 0.06 | > 300 | 1.25 |
| CN(C)CCN(C)C(=O)C1NC(=O)C2NC(=O)C(NC(=O)C3NC(=O)C4NC(=O)C(Cc5ccc(c(Cl)c5)Oc5cc3cc(c5O)Oc3ccc(cc3Cl)C2O)NC(=O)C(N)c2ccc(O)c(c2)Oc2cc(O)cc4c2)c2ccc(O)c(c2)-c2c(O)cc(O)cc21 (stereo not shown) [Compound 93] | – | 8 (≈ 6.23 µM) | 64 (≈ 49.9 µM) | 64 (≈ 49.9 µM) | 0.06 (≈ 0.0468 µM) | 0.06 (≈ 0.0468 µM) | 0.12 (≈ 0.0935 µM) | 0.06 (≈ 0.0468 µM) | 0.06 (≈ 0.0468 µM) | > 300 | 1.25 |
| CN(C)CCNC(=O)C1NC(=O)C2NC(=O)C(NC(=O)C3NC(=O)C4NC(=O)C(Cc5ccc(c(Cl)c5)Oc5cc3cc(c5O)Oc3ccc(cc3Cl)C2O)NC(=O)C(N)c2ccc(O)c(c2)Oc2cc(O)cc4c2)c2ccc(O)c(c2)-c2c(O)cc(O)cc21.Cl.Cl (stereo not shown) [Compound 94] | – | 4 | 32 | 16 | 0.06 | 0.06 | 0.12 | 0.06 | 0.06 | > 300 | 1.25 |
| CN(C)CCCCNC(=O)C1NC(=O)C2NC(=O)C(NC(=O)C3NC(=O)C4NC(=O)C(Cc5ccc(c(Cl)c5)Oc5cc3cc(c5O)Oc3ccc(cc3Cl)C2O)NC(=O)C(N)c2ccc(O)c(c2)Oc2cc(O)cc4c2)c2ccc(O)c(c2)-c2c(O)cc(O)cc21.O=C(O)C(F)(F)F.O=C(O)C(F)(F)F (stereo not shown) [Compound 97] | – | 8 | 32 | 32 | 0.12 | 0.06 | 0.12 | 0.12 | 0.06 | > 300 | 0.54 |
| NCCCCNC(=O)C1NC(=O)C2NC(=O)C(NC(=O)C3NC(=O)C4NC(=O)C(Cc5ccc(c(Cl)c5)Oc5cc3cc(c5O)Oc3ccc(cc3Cl)C2O)NC(=O)C(N)c2ccc(O)c(c2)Oc2cc(O)cc4c2)c2ccc(O)c(c2)-c2c(O)cc(O)cc21 (stereo not shown) [Compound 99] | – | 8 (≈ 6.3 µM) | 32 (≈ 25.2 µM) | 32 (≈ 25.2 µM) | 0.06 (≈ 0.0473 µM) | 0.06 (≈ 0.0473 µM) | 0.12 (≈ 0.0946 µM) | 0.12 (≈ 0.0946 µM) | 0.06 (≈ 0.0473 µM) | – | – |
| CN(C)CCCCCNC(=O)C1NC(=O)C2NC(=O)C(NC(=O)C3NC(=O)C4NC(=O)C(Cc5ccc(c(Cl)c5)Oc5cc3cc(c5O)Oc3ccc(cc3Cl)C2O)NC(=O)C(N)c2ccc(O)c(c2)Oc2cc(O)cc4c2)c2ccc(O)c(c2)-c2c(O)cc(O)cc21 (stereo not shown) [Compound 100] | 9.0 | 8 (≈ 6.1 µM) | 128 (≈ 97.6 µM) | 64 (≈ 48.8 µM) | 0.06 (≈ 0.0458 µM) | 0.06 (≈ 0.0458 µM) | 0.12 (≈ 0.0915 µM) | 0.12 (≈ 0.0915 µM) | 0.06 (≈ 0.0458 µM) | – | – |
| NCCCCCCNC(=O)C1NC(=O)C2NC(=O)C(NC(=O)C3NC(=O)C4NC(=O)C(Cc5ccc(c(Cl)c5)Oc5cc3cc(c5O)Oc3ccc(cc3Cl)C2O)NC(=O)C(N)c2ccc(O)c(c2)Oc2cc(O)cc4c2)c2ccc(O)c(c2)-c2c(O)cc(O)cc21 (stereo not shown) [Compound 102] | – | 4 (≈ 3.08 µM) | 64 (≈ 49.3 µM) | 64 (≈ 49.3 µM) | 0.06 (≈ 0.0463 µM) | 0.06 (≈ 0.0463 µM) | 0.12 (≈ 0.0925 µM) | 0.06 (≈ 0.0463 µM) | 0.06 (≈ 0.0463 µM) | – | – |
| CCCCOC(=O)C(CCCNC(=N)N)NC(=O)C1NC(=O)C2NC(=O)C(NC(=O)C3NC(=O)C4NC(=O)C(Cc5ccc(c(Cl)c5)Oc5cc3cc(c5O)Oc3ccc(cc3Cl)C2O)NC(=O)C(N)c2ccc(O)c(c2)Oc2cc(O)cc4c2)c2ccc(O)c(c2)-c2c(O)cc(O)cc21 (stereo not shown) [Compound 103] | – | 64 (≈ 45.4 µM) | > 128 | 128 (≈ 90.7 µM) | 2 (≈ 1.42 µM) | 0.5 (≈ 0.354 µM) | 1 (≈ 0.709 µM) | 0.5 (≈ 0.354 µM) | 0.5 (≈ 0.354 µM) | – | – |
